The values below are quoted from earlier work in US8440231B2, “Swellable particles for drug delivery” (STC.UNM, priority 2006, dated 2013).

With `CC(=O)N[C@@H](CS)C(=O)O` [NACS, N-acetylcysteine], the soluble in water is 100 mg/mL.
